We go through eight molecules from patent US10538508B2, “Substituted amino triazoles useful as human chitinase inhibitors” (OncoArendi Therapeutics S.A., priority 2015, dated 2020).

SMILES strings stand for the structures.

The target of one assay is recombinant human CHIT1 (Homo sapiens (Human), UniProt Q13231). The experiment in a line: Human CHIT1 Activity Assay. The class given is biochemical. The note with it: recombinant human CHIT1, citrate buffer pH 5.2, 37° C., 60 minutes; read-out: Activity on hCHIT1, IC50.
Sequence of recombinant human CHIT1 (Q13231 22-466): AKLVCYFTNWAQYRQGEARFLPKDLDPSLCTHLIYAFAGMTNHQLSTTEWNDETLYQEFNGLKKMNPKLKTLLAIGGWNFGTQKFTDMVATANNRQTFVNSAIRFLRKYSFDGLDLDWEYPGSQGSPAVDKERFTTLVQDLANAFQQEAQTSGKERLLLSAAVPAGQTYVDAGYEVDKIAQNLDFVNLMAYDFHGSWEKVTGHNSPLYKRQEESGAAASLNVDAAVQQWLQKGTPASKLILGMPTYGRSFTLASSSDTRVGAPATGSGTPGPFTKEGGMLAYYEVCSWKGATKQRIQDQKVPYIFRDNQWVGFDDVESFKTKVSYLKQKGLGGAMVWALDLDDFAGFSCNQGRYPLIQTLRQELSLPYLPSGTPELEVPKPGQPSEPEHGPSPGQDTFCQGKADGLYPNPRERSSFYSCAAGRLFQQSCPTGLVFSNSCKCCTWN
The target in another assay is recombinant human AMCase (Homo sapiens (Human), UniProt Q9BZP6). The experiment in a line: Human AMCase Activity Assay. The class given is biochemical. The note with it: citrate buffer pH 5.2, 37° C., 60 minutes, read-out: Activity on hAMCase, IC50.
Sequence of recombinant human AMCase (Q9BZP6 22-476): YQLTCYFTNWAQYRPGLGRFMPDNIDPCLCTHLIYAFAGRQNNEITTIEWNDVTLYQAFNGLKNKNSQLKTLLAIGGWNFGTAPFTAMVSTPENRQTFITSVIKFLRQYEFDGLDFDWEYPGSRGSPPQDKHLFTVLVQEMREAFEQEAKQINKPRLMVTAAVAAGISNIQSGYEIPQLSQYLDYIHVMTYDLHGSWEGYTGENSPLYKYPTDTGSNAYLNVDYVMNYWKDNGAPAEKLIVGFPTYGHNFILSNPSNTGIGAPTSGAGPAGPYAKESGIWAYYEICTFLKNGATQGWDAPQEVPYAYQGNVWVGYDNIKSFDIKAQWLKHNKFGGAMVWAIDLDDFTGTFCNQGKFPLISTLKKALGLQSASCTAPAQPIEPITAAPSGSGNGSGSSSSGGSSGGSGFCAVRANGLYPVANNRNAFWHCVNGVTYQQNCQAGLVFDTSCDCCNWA

As for `COC(=O)CN1C[C@H](Cc2ccc(Cl)cc2)N(C2CCN(c3nnc(N)[nH]3)CC2)C[C@@H]1C` [Example 40, methyl 2-((2S,5S)-4-(1-(5-amino-4H-1,2,4-triazol-3-yl)piperidin-4-yl)-5-(4-chlorobenzyl)-2-methylpiperazin-1-yl)acetate], the IC50 (commonly the midpoint of a concentration-inhibition curve) at recombinant human CHIT1 lay within 0.1 to 1 µM.

Regarding `CN1C[C@H](Cc2ccc(Cl)cc2)N(C2CCN(c3nnc(N)[nH]3)CC2)C[C@@H]1CC1CCCCC1` [Example 32, 5-(4-((2 S, 5S)-2-(4-chlorobenzyl)-5-(cyclohexylmethyl)-4-methylpiperazin-1-yl)piperidin-1-yl)-4H-1,2,4-triazol-3-amine], the IC50 on recombinant human AMCase is less than 0.1 µM.

As to `CN1C[C@H](Cc2ccc(Cl)cc2)N(C2CCN(c3nnc(N)[nH]3)CC2)C[C@@H]1Cc1ccc(Cl)cc1` [Example 31, 5-(4-((2S,5S)-2,5-bis(4-chlorobenzyl)-4-methylpiperazin-1-yl)piperidin-1-yl)-4H-1,2,4-triazol-3-amine], at recombinant human AMCase, the IC50 is less than 0.1 µM.

Regarding `CC(C)C[C@H]1CN(C2CCN(c3nnc(N)[nH]3)CC2)[C@@H](Cc2ccc(Cl)cc2)CN1C` [Example 33, 5-(4-((2S,5S)-2-(4-chlorobenzyl)-5-isobutyl-4-methylpiperazin-1-yl)piperidin-1-yl)-4H-1,2,4-triazol-3-amine], the IC50 on recombinant human AMCase was less than 0.1 µM.

For the molecule `C[C@H]1CN(C2CCN(c3nnc(N)[nH]3)CC2)[C@@H](Cc2ccc(Cl)cc2)C(C)(C)O1` [Example 53, 5-(4-((3S,6S)-3-(4-chlorobenzyl)-2,2,6-trimethylmorpholino)piperidin-1-yl)-4H-1,2,4-triazol-3-amine], at recombinant human CHIT1, the IC50 was in the range of 10 to 100 µM.

For the molecule `COC(=O)N1C[C@H](Cc2ccc(Cl)cc2)N(C2CCN(c3nnc(N)[nH]3)CC2)C[C@@H]1C` [Example 39, methyl (2S,5S)-4-(1-(5-amino-4H-1,2,4-triazol-3-yl)piperidin-4-yl)-5-(4-chlorobenzyl)-2-methylpiperazine-1-carboxylate], the IC50 on recombinant human CHIT1 is 10 to 100 µM.

With `C[C@H]1CN(C2CCN(c3nnc(N)[nH]3)CC2)[C@@H](Cc2ccc(Cl)cc2)CN1S(C)(=O)=O` [Example 37, 5-(4-((2S,5S)-2-(4-chlorobenzyl)-5-methyl-4-(methylsulfonyl)piperazin-1-yl)piperidin-1-yl)-4H-1,2,4-triazol-3-amine], the IC50 at recombinant human CHIT1 lay in the range of 10 to 100 µM.

On to `COC(C)(C)[C@H]1CN(C2CCN(c3nnc(N)[nH]3)CC2)[C@@H](Cc2ccc(Cl)cc2)CO1` [Example 14, 5-(4-((2R,5S)-5-(4-chlorobenzyl)-2-(2-methoxypropan-2-yl)morpholino)piperidin-1-yl)-4H-1,2,4-triazol-3-amine], for which the IC50 on recombinant human CHIT1 is less than 0.1 µM.
